Assay results as given in patent publication US9107871B2, “LHRH—antagonists in the treatment of fertility disorders” (ZENTARIS IVP GMBH, priority 1996, dated 2015).
Where a SMILES comes first, the peptide text is derived from it. [ ]: non-standard residue; d: D form. dPhe(4-Cl) = N[C@H](Cc1ccc(Cl)cc1)C(=O)O; d2Nal = N[C@H](Cc1ccc2ccccc2c1)C(=O)O; dCit = NC(=O)NCCC[C@@H](N)C(=O)O; d3Pal = N[C@H](Cc1cccnc1)C(=O)O

Tested on: patients undergoing COS/ART
Experiment: Phase II clinical trial of Cetrorelix in controlled ovarian stimulation/superovulation for assisted reproduction (COS/ART)
Type: in vivo, human
Details: for premature LH surge: s.c., patients undergoing COS/ART
Description: The results of a phase II clinical trial are shown in Table I. A total of 235 patients were treated. […] During multiple dosing, the mean days of Cetrorelix application is 6 days. 25 babies were born by the end of May 1996 (7 following multiple doses; 18 following single/dual doses). […] [table] 238 patients were treated with Cetrorelix by subcutaneous injection of Cetrorelix […]-Lyophilisat. 134 patients were treated with multiple doses and 104 patients with single or dual doses. The multiple doses are 0.25 mg/day or higher. The single dose was 3 mg or higher. […] Multiple doses were applied for 3 to a maximum of 10 days dependent on follicular development.

[1] = multiple dose, dose/day, phase II dose finding

CC(=O)N[C@H](Cc1ccc2ccccc2c1)C(=O)N[C@H](Cc1ccc(Cl)cc1)C(=O)N[C@H](Cc1cccnc1)C(=O)N[C@@H](CO)C(=O)N[C@@H](Cc1ccc(O)cc1)C(=O)N[C@H](CCCNC(N)=O)C(=O)N[C@@H](CC(C)C)C(=O)N[C@@H](CCCNC(=N)N)C(=O)N1CCC[C@H]1C(=O)N[C@H](C)C(N)=O [Cetrorelix] (Ac-[d2Nal][dPhe(4-Cl)][d3Pal]SY[dCit]LRP[dA]-NH2)
premature LH surge (FIG. 1, time variation of hormonal levels) (FIG. 1): absolute prevention of any premature LH surge | pregnancies obtained (number) (all phase II patients, both regimens): 71 | babies born (number) (by the end of May 1996, all patients): 25 | babies born (number) (by the end of May 1996, following multiple doses): 7 | babies born (number) (by the end of May 1996, following single/dual doses): 18 | babies born (number) (following multiple doses): 15 | babies born (number) (following single/dual doses): 29 | pregnancies obtained (number) (multiple dose regimen, of 134 patients): 38 | minimal effective dose [1]: 0.25 min. effect. dose mg | no effect dose [1]: 0.10 no effect. dose mg | premature LH surge (multiple doses of 0.25 mg/day or higher): No premature LH surge | premature LH surge (single dose of 3 mg or higher): No premature LH surge | duration of effect to prevent a premature LH surge (single dose regimen (one single injection of 3 mg)): up to 6.5 days | pregnancies obtained (number) (single/dual dosage regimen, of 104 patients): 33
